Structures can show the parent of a compound that is named as a salt.
Legend:
lipoxygenase = assay: Lipoxygenase inhibition: release of leukotriene B4 (LTB4) by polymorphonuclear rat leukocytes (PMN) after Ca ionophore, reverse phase HPLC; type: cell-based
Protocol: (§1) The pharmacological activity data of the substances according to the invention are determined by the following method: As a measure of the lipoxygenase inhibition, the release of leukotriene B4 (LTB4) by polymorphonuclear rat leukocytes (PMN) was determined after addition of substances and Ca ionophore by means of reverse phase HPLC according to Borgeat, P. et al., Proc. Nat. Acad. Sci. 76, 2148-2152 (1979). The in vivo activity of the compounds was determined using the mouse ear inflammation model according to Young, J. M. et al., J. of Investigative Dermatology 82, 367-371 (1984).

mouse ear inflammation = assay: Mouse ear inflammation model (in vivo activity); details: 100 mg/kg p.o.
Protocol: as §1

Structure (SMILES)	IC50 (lipoxygenase)	Inhibition of inflammation % (mouse ear inflammation)
CCCCCC(O)c1cccc(OCc2ccc3ccccc3n2)c1 (stereo not shown) [2-[3-(1-hydroxyhexyl)phenoxymethyl]quinoline, reference compound]	200 nM	24%
CCCCCC(C(=O)OC)c1ccc(OCc2ccc3ccccc3n2)cc1 (stereo not shown) [Example 10, Methyl 2-[4-(quinolin-2-yl-methoxy)phenyl]heptanoate]		61%
C/C=C/CC(C(=O)OC)c1ccc(OCc2ccc3ccccc3n2)cc1 (stereo not shown) [Example 12, Methyl E-2-[4-(quinolin-2-yl-methoxy)phenyl]-4-hexenoate]		59%
CC(C)=CCC(C(=O)O)c1ccc(OCc2ccc3ccccc3n2)cc1 (stereo not shown) [Example 22, 2-[4-(Quinolin-2-yl-methoxy)phenyl]-5-methyl-4-hexenoic acid]		77%

The next lines start with results.

IC50 (lipoxygenase)	Structure (SMILES)	Inhibition of inflammation % (mouse ear inflammation)
55 nM	CCCCC(C(=O)O)c1ccc(OCc2ccc3ccccc3n2)cc1 (stereo not shown) [Example 20, 2-[4-(Quinolin-2-yl-methoxy)phenyl]caproic acid]	68%
63 nM	CCCCC(C(=O)OCC(=O)OC)c1ccc(OCc2ccc3ccccc3n2)cc1 (stereo not shown) [Example 27, Methoxycarbonylmethyl 2-[4-(quinolin-2-yl-methoxy)phenyl]caproate hydrochloride]	
55 nM	CCCCC(C(=O)OCC(=O)O)c1ccc(OCc2ccc3ccccc3n2)cc1 (stereo not shown) [Example 29, Carboxymethyl 2-[4-(quinolin-2-yl-methoxy)phenyl]caproate]	72%

Reference: patent US4929626A, “α-substituted 4-(quinolin-2-yl-methoxy)phenylacetic acids and esters and lipoxygenase inhibition therewith” (Bayer Aktiengesellschaft, priority 1988, dated 1990)
